Source: the supplement of paper PMC12819154, “High-throughput peptide-centric local stability assay extends protein–ligand identification to membrane proteins, tissues and bacteria” (Nature Structural & Molecular Biology, 2025)

Columns and labels:
Test in all cases: pEC50 of peptide local stability change
[1] = target: UniProt P25539; conditions: peptide sequence: HVGPDVCLHLVGA; direction: stabilized; replicate design: treated separately
Experimental: (§1)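 Dose-response HT-PELSA: desalted E. coli lysate treated separately per replicate with ATP (10 uM to 10 mM, 7 doses) for 30 min at 25 C, then a 4 min trypsin pulse at 22 C. Peptide ratio vs control was fitted with a 4-parameter log-logistic model (R2 > 0.9 in at least 3 replicates, CV of pEC50 <= 0.25); value is the mean pEC50 across replicates for stabilized or destabilized peptides.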

[2] = target: UniProt P07862; conditions: peptide sequence: AWTTLGCK; direction: stabilized; replicate design: treated separately
Experimental: as §1

[3] = target: UniProt P28903; conditions: peptide sequence: KGDPNYDIK; direction: stabilized; replicate design: treated separately
Experimental: as §1

[4] = target: UniProt P23837; conditions: peptide sequence: VDTLRPGQGVGLAVAR; direction: stabilized; replicate design: treated separately
Experimental: as §1

[5] = target: UniProt P39383; conditions: peptide sequence: QLVDFADK; direction: stabilized; replicate design: treated separately
Experimental: as §1

[6] = target: UniProt P24193; conditions: peptide sequence: DAALIGEVVERK; direction: stabilized; replicate design: treated separately
Sequence of UniProt P24193 (P24193 whole entry): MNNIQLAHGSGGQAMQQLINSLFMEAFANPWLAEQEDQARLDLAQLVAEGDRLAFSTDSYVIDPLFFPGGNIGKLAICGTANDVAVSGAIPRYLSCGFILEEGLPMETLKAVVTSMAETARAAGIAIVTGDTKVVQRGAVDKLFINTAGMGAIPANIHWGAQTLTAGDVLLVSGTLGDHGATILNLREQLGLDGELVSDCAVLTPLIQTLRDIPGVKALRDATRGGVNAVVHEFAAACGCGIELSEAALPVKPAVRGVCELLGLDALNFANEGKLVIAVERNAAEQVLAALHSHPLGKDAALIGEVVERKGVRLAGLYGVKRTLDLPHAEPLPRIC
Experimental: as §1

[7] = target: UniProt P09980; conditions: peptide sequence: DYAILYR; direction: stabilized; replicate design: treated separately
Experimental: as §1

[8] = target: UniProt P36566; conditions: peptide sequence: TLSPDYPR; direction: stabilized; replicate design: treated separately
Experimental: as §1

[9] = target: UniProt P27278; conditions: peptide sequence: TVAILGGESSGK; direction: stabilized; replicate design: treated separately
Experimental: as §1

[10] = target: UniProt P37760; conditions: peptide sequence: TGQVGWELQR; direction: stabilized; replicate design: treated separately
Experimental: as §1

[11] = target: UniProt P37440; conditions: peptide sequence: CTAVVADVR; direction: stabilized; replicate design: treated separately
Sequence of UniProt P37440 (P37440 whole entry): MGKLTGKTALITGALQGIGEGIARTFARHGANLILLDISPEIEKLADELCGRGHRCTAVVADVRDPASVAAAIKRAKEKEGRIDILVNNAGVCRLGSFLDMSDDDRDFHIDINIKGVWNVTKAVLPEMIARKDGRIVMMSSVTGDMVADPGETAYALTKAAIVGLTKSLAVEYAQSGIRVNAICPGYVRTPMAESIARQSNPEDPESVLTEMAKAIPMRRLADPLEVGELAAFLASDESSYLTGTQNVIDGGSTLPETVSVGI
Experimental: as §1

[12] = target: UniProt P06612; conditions: peptide sequence: DLPTSGSAAKK; direction: stabilized; replicate design: treated separately
Experimental: as §1

[13] = target: UniProt P45395; conditions: peptide sequence: VNDIMHTGDEIPHVKK; direction: stabilized; replicate design: treated separately
Experimental: as §1

[14] = target: UniProt P37624; conditions: peptide sequence: VLASGTPQELVEKR; direction: stabilized; replicate design: treated separately
Sequence of UniProt P37624 (P37624 whole entry): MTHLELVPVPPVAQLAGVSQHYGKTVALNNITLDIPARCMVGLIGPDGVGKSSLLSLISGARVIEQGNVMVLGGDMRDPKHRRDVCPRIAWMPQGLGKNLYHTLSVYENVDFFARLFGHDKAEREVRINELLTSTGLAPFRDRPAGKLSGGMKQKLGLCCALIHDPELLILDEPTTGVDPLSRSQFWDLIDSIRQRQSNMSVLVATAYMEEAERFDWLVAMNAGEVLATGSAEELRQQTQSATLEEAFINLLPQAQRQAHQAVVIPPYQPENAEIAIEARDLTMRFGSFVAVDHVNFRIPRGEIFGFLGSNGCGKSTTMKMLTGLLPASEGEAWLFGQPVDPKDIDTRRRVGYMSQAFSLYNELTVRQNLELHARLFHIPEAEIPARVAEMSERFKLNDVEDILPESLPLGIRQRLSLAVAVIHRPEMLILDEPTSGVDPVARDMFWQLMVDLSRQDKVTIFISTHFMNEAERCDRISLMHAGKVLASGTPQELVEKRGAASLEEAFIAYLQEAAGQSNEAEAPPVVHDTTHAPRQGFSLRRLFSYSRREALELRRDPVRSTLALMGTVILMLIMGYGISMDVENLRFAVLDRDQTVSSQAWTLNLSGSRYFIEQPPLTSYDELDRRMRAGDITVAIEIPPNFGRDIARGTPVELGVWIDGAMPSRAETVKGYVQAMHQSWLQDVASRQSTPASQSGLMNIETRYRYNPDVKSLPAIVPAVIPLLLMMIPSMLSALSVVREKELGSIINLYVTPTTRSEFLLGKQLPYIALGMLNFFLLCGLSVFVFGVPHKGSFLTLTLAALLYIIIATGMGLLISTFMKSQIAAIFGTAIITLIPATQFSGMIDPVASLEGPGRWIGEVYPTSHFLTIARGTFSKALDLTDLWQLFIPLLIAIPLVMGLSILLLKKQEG
Experimental: as §1

[15] = target: UniProt P31663; conditions: peptide sequence: NGYLTAEQR; direction: stabilized; replicate design: treated separately
Sequence of UniProt P31663 (P31663 whole entry): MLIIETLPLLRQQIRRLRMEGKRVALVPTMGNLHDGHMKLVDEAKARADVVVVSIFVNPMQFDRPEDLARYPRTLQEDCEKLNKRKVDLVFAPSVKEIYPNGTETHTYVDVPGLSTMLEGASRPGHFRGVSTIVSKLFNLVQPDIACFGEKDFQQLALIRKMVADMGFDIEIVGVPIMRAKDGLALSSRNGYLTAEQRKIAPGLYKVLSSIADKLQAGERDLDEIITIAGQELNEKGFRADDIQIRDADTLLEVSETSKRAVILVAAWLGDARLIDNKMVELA
Experimental: as §1

[16] = target: UniProt P37744; conditions: peptide sequence: LSVAMMGR; direction: stabilized; replicate design: treated separately
Experimental: as §1

[17] = target: UniProt P00959; conditions: peptide sequence: LKENGFIK; direction: stabilized; replicate design: treated separately
Experimental: as §1

[18] = target: UniProt P20083; conditions: peptide sequence: RDGQVYNIAFENGEK; direction: stabilized; replicate design: treated separately
Experimental: as §1

[19] = target: UniProt P21599; conditions: peptide sequence: VLEVQGMK; direction: stabilized; replicate design: treated separately
Experimental: as §1

[20] = target: UniProt P39410; conditions: peptide sequence: HIAQEMPEK; direction: stabilized; replicate design: treated separately
Experimental: as §1

[21] = target: UniProt Q46802; conditions: peptide sequence: GAFTGASANGK; direction: stabilized; replicate design: treated separately
Sequence of UniProt Q46802 (Q46802 whole entry): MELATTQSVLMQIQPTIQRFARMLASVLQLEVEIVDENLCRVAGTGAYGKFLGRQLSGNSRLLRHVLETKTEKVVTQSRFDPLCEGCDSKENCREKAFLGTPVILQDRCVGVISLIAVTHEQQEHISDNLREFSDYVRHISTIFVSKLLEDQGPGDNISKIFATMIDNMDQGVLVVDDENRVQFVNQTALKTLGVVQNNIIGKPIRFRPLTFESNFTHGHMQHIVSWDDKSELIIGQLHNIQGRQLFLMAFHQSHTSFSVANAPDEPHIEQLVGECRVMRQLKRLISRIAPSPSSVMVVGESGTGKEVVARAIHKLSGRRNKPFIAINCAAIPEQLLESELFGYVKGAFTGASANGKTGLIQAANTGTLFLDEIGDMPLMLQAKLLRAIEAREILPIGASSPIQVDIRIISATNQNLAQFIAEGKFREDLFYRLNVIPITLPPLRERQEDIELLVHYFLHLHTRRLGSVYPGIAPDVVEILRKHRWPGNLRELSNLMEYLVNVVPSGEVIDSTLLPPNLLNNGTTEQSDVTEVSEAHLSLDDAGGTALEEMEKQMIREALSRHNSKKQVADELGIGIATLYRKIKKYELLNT
Experimental: as §1

[22] = target: UniProt P31060; conditions: peptide sequence: QSQFSHITR; direction: stabilized; replicate design: treated separately
Experimental: as §1

[23] = target: UniProt P14375; conditions: peptide sequence: ELENAVER; direction: stabilized; replicate design: treated separately
Sequence of UniProt P14375 (P14375 whole entry): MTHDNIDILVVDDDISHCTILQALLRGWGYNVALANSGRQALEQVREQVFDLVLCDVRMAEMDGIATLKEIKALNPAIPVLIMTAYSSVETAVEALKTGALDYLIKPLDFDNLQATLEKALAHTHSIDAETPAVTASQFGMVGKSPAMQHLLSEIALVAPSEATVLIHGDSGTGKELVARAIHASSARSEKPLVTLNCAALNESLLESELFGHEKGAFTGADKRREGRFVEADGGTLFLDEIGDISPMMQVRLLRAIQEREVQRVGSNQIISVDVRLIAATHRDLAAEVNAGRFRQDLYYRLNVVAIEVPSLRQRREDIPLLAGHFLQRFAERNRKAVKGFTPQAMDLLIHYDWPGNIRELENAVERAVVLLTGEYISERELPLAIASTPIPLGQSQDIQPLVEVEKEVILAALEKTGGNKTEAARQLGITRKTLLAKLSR
Experimental: as §1

[24] = target: UniProt P04993; conditions: peptide sequence: VAAAVALTR; direction: stabilized; replicate design: treated separately
Sequence of UniProt P04993 (P04993 whole entry): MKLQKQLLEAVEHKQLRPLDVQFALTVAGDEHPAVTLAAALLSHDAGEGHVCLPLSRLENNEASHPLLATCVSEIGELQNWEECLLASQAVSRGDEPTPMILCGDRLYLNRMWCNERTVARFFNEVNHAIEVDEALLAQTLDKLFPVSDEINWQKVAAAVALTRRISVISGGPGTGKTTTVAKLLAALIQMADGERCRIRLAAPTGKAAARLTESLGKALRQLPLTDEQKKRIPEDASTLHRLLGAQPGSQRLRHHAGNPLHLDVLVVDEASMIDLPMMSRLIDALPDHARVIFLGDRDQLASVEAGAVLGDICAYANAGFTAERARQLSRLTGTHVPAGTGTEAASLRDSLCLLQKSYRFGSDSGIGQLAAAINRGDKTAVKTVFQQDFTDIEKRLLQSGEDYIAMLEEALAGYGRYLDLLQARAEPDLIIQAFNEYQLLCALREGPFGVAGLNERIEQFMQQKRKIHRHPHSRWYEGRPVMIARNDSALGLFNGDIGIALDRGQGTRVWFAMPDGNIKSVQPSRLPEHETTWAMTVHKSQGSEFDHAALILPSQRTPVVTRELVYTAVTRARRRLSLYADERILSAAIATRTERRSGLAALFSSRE
Experimental: as §1

[25] = target: UniProt P13000; conditions: peptide sequence: TVASCALLQAAK; direction: stabilized; replicate design: treated separately
Experimental: as §1

[26] = target: UniProt P0ACW4; conditions: peptide sequence: GGISHCTAGGKFVCNDGSISASK; direction: stabilized; replicate design: treated separately
Experimental: as §1

[27] = target: UniProt P23331; conditions: peptide sequence: AEHEQQAIHCVLVDECQFLTR; direction: stabilized; replicate design: treated separately
Experimental: as §1

[28] = target: UniProt P30176; conditions: peptide sequence: AKFEQHAELR; direction: stabilized; replicate design: treated separately
Sequence of UniProt P30176 (P30176 whole entry): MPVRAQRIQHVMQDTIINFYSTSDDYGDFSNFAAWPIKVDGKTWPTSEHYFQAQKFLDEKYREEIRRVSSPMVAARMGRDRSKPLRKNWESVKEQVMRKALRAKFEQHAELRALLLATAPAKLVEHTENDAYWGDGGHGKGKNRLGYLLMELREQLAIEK
Experimental: as §1

[29] = target: UniProt P0ACL0; conditions: peptide sequence: HVMLVVDHSK; direction: stabilized; replicate design: treated separately
Experimental: as §1

[30] = target: UniProt P39342; conditions: peptide sequence: AMVIAPCSR; direction: stabilized; replicate design: treated separately
Sequence of UniProt P39342 (P39342 whole entry): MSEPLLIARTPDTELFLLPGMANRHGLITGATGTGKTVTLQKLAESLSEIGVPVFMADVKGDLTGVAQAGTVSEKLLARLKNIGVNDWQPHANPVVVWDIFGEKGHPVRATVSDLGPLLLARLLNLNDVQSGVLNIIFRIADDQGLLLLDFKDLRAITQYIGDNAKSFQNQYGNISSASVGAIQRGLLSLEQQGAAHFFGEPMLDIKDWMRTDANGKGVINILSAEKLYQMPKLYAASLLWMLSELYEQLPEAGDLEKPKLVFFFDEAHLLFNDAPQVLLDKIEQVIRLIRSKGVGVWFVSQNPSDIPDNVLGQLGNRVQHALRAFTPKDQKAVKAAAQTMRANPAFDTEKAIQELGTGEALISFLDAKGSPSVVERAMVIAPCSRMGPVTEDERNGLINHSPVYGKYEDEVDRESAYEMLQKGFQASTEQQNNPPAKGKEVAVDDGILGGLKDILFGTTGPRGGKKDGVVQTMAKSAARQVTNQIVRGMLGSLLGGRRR
Experimental: as §1

[31] = target: MurF (UniProt P11880); conditions: peptide sequence: KLTPGCLFVALKGER; direction: stabilized; replicate design: treated separately
Sequence of MurF (P11880 whole entry): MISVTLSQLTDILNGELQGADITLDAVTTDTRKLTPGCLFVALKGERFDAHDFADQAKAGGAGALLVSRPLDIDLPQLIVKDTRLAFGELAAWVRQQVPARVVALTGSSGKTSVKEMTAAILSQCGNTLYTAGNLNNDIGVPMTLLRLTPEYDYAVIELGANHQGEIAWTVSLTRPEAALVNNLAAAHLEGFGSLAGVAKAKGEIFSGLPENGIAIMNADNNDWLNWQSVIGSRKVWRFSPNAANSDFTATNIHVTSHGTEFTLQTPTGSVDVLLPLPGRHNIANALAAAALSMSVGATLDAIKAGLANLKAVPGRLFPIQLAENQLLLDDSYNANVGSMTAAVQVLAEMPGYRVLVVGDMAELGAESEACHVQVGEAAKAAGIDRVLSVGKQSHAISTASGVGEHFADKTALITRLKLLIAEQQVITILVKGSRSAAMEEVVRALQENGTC
Experimental: as §1

Sequence of UniProt P25539 (P25539 whole entry): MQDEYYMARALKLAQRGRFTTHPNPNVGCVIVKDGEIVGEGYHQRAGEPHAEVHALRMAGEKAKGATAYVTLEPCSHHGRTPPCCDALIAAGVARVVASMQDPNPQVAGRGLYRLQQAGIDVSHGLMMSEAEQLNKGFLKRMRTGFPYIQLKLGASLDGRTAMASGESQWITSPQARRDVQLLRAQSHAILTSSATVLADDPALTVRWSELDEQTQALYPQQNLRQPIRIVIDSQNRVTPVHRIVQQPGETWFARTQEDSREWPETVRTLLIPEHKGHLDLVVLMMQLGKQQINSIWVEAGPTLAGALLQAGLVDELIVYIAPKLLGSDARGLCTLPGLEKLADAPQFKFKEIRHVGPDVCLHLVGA

Nc1ncnc2c1ncn2[C@@H]1O[C@H](COP(=O)(O)OP(=O)(O)OP(=O)(O)O)[C@@H](O)[C@H]1O [adenosine 5'-triphosphate]
Conditions | pEC50 of peptide local stability change
[1] | 2.74
[2] | 3.66
[3] | 2.76
[4] | 3.21
[5] | 3.31
[6] | 4.4
[7] | 4.14
[8] | 2.46
[9] | 3.44
[10] | 3.12
[11] | 2.72
[12] | 2.16
[13] | 3.32
[14] | 3.2
[15] | 4.25
[16] | 3.22
[17] | 2.99
[18] | 3.38
[19] | 2.4
[20] | 3.92
[21] | 3.29
[22] | 2.89
[23] | 3.65
[24] | 2.84
[25] | 4.87
[26] | 2.19
[27] | 3.2
[28] | 2.71
[29] | 4.44
[30] | 4.23
[31] | 4.01
